Data taken from US10358446B2, “Bruton's tyrosine kinase inhibitors” (Zibo Biopolar Changsheng Pharmaceutical Co. Ltd., priority 2015, dated 2019).

Biological target: BTK (Homo sapiens (Human), UniProt Q06187)
Experiment: Btk kinase assay (HTRF)
Assay type: biochemical
Conditions: [ATP]=80 μM, BTK=3.4 nM; read-out: BTK Inhibition
Method: Btk kinase activity was determined using a homogenous time resolved fluorescence (HTRF) methodology. Measurements were performed in a reaction volume of 15 μL using 384-well assay plates. Kinase enzyme, inhibitor, ATP and 1 μM peptide substrate were incubated in a reaction buffer compose of Hepes 50 mM (pH7.0), NaN3 0.02%, BSA 0.01%, Orthocanadate 0.1 mM. After one hour, the kinase reaction was quenched by the addition of […] antibody and XL-665 in 1× Detection buffer containing 60 mM EDTA (Cisbio), and the mixture was allowed to incubate for one hour. The HTRF signal was measured on a multimode plate reader (EnVision® Multilabel Reader, Perkin Elmer) with an excitation wavelength (λEx) of 330 nm and detection wavelengths (λEm) of 615 and 665 nrm. Activity was determined by the ratio of the fluorescence at 665 nm to that at 615 nm. For each compound, enzyme activity as measured at various concentrations of compound, Negative control reactions were performed in the absence of inhibitor in two replicates and eight no enzyme controls were used to determine baseline fluorescence levels. IC50s were obtained according to the equation: […] For BTK assay, [ATP]=80 μM, BTK=3.4 nM.

BTK, sequence (Q06187 whole entry, species assumed): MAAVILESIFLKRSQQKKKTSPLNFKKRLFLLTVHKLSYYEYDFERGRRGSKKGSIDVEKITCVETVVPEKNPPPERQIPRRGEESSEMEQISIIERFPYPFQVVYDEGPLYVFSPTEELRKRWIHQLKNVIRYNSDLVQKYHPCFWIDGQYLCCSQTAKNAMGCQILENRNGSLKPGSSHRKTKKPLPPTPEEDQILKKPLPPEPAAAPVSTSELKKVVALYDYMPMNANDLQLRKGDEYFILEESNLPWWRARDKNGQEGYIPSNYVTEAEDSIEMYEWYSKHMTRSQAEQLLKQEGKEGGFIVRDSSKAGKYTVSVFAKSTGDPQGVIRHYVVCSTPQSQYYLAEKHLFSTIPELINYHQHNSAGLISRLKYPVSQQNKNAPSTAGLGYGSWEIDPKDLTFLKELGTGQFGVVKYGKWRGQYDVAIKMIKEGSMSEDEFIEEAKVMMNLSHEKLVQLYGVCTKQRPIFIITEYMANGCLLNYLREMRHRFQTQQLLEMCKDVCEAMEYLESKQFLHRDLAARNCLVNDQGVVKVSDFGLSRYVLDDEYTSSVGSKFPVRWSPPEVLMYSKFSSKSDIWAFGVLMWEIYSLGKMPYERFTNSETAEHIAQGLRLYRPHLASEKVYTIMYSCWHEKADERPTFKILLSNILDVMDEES

| IC50 [nM] | Structure (SMILES) |
| --- | --- |
| 100 to 1000 | C=CC(=O)N1CC[C@@H](n2c(=O)n(-c3ccc(Oc4ccccc4)cc3)c3c(N)cccc32)C1 [Example 190, (R)-1-(1-acryloylpyrrolidin-3-yl)-4-amino-3-(4-phenoxyphenyl)-1H-benzo[d]imidazol-2(3H)-one] |
| 100 to 1000 | C=CC(=O)Nc1cccc(-n2c(=O)n(-c3ccc(OCc4ccccc4)c(F)c3)c3cnccc32)c1 [Example 234, N-(3-(3-(4-(benzyloxy)-3-fluorophenyl)-2-oxo-2,3-dihydro-1H-imidazo[4,5-c]pyridin-1-yl)phenyl)acrylamide] |
| 100 to 1000 | C=CC(=O)Nc1cccc(-n2c(=O)n(-c3ccc(Oc4ccc(OC)cc4)cc3)c3cnccc32)c1 [Example 80, N-(3-(3-(4-(4-methoxyphenoxy)phenyl)-2-oxo-2,3-dihydro-1H-imidazo[4,5-c]pyridin-1-yl)phenyl)acrylamide] |
| 10 to 100 | C=CC(=O)N1CCC[C@@H](n2c(=O)n(-c3ccc(Oc4cccc(OC)c4)cc3)c3cnccc32)C1 [Example 118, (R)-1-(1-acryloylpiperidin-3-yl)-3-(4-(3-methoxyphenoxy)phenyl)-1H-imidazo[4,5-c]pyridin-2(3H)-one] |
| 1000 to 10000 | C=CC(=O)N1CCC[C@@H](n2c(=O)n(-c3ccc(Oc4ccccc4)cc3)c3ccncc32)C1 [Example 122, (R)-3-(1-acryloylpiperidin-3-yl)-1-(4-phenoxyphenyl)-1H-imidazo[4,5-c]pyridin-2(3H)-one] |
| 100 to 1000 | C=CC(=O)Nc1cccc(-n2c(=O)n(-c3ccc(Oc4cc(Cl)cc(Cl)c4)cc3)c3cnccc32)c1 [Example 130, N-(3-(3-(4-(3,5-dichlorophenoxy)phenyl)-2-oxo-2,3-dihydro-1H-imidazo[4,5-c]pyridin-1-yl)phenyl)acrylamide] |
| 1000 to 10000 | C=CC(=O)Nc1cccc(-n2c(=O)n(-c3ccc(-c4ccc(C)cc4)cc3)c3cnccc32)c1 [Example 276, N-(3-(3-(4′-methyl-[1,1′-biphenyl]-4-yl)-2-oxo-2,3-dihydro-1H-imidazo[4,5-c]pyridin-1-yl)phenyl)acrylamide] |
| 10 to 100 | C=CC(=O)Nc1cccc(-n2c(=O)n(-c3ccc(OCc4ccc(Cl)cc4Cl)cc3)c3cnccc32)c1 [Example 229, N-(3-(3-(4-((2,4-dichlorobenzyl)oxy)phenyl)-2-oxo-2,3-dihydro-1H-imidazo[4,5-c]pyridin-1-yl)phenyl)acrylamide] |
| 10 to 100 | C=CC(=O)N1CCC[C@@H](n2c(=O)n(-c3ccc(Oc4cccc(F)c4F)cc3)c3cnccc32)C1 [Example 61, (R)-1-(1-acryloylpiperidin-3-yl)-3-(4-(2,3-difluorophenoxy)phenyl)-1H-imidazo[4,5-c]pyridin-2(3H)-one] |
| 10 to 100 | C=CC(=O)Nc1cccc(-n2c(=O)n(-c3cccc(Oc4cccc(Cl)c4)c3)c3cnccc32)c1 [Example 74, N-(3-(3-(3-(3-chlorophenoxy)phenyl)-2-oxo-2,3-dihydro-1H-imidazo[4,5-c]pyridin-1-yl)phenyl)acrylamide] |
| 100 to 1000 | C=CC(=O)N1CC[C@@H](n2c(=O)n(-c3ccc(OCc4ccc(Cl)cc4Cl)c(Cl)c3)c3cnccc32)C1 [Example 208, (R)-1-(1-acryloylpyrrolidin-3-yl)-3-(3-chloro-4-((2,4-dichlorobenzyl)oxy)phenyl)-1H-imidazo[4,5-c]pyridin-2(3H)-one] |
| 1000 to 10000 | C=CC(=O)Nc1cccc(-n2c(=O)n(-c3ccc(Oc4ccc(C(F)(F)F)cc4)c(Cl)c3)c3cnccc32)c1 [Example 111, N-(3-(3-(3-chloro-4-(4-(trifluoromethyl)phenoxy)phenyl)-2-oxo-2,3-dihydro-1H-imidazo[4,5-c]pyridin-1-yl)phenyl)acrylamide] |
| 10 to 100 | C=CC(=O)N1CCC(n2c(=O)n(-c3ccc(Oc4cccc(OC)c4)c(C)c3)c3cnccc32)C1 (stereo not drawn) [Example 92, 1-(1-acryloylpyrrolidin-3-yl)-3-(4-(3-methoxyphenoxy)-3-methylphenyl)-1,3-dihydro-2H-imidazo[4,5-c]pyridin-2-one] |
| 10 to 100 | C=CC(=O)N1CCC[C@@H](n2c(=O)n(-c3ccc(Oc4ccccc4)c(Cl)c3)c3cnccc32)C1 [Example 107, (R)-1-(1-acryloylpiperidin-3-yl)-3-(3-chloro-4-phenoxyphenyl)-1H-imidazo[4,5-c]pyridin-2(3H)-one] |
| 10 to 100 | C=CC(=O)N1CC[C@@H](n2c(=O)n(-c3ccc(Oc4ccc(OC)cc4)c(Cl)c3)c3cnccc32)C1 [Example 42, (R)-1-(1-acryloylpyrrolidin-3-yl)-3-(3-chloro-4-(4-methoxyphenoxy)phenyl)-1H-imidazo[4,5-c]pyridine-2(3H)-one] |
| 10 to 100 | C=CC(=O)N1CCC[C@@H](n2c(=O)n(-c3ccc(Oc4cccc(C)c4C)cc3)c3cnccc32)C1 [Example 58, (R)-1-(1-acryloylpiperidin-3-yl)-3-(4-(2,3-dimethylphenoxy)phenyl)-1H-imidazo[4,5-c]pyridin-2(3H)-one] |
| 10 to 100 | C=CC(=O)N1CCC[C@@H](n2c(=O)n(-c3ccc(Oc4cccc(OC(C)C)c4)cc3)c3cnccc32)C1 [Example 14, (R)-1-(1-acryloylpiperidin-3-yl)-3-(4-(3-isopropoxyphenoxy)phenyl)-1H-imidazo[4,5-c]pyridin-2(3H)-one] |
| 10 to 100 | C=CC(=O)N1CCC[C@@H](n2c(=O)n(-c3ccc(Oc4cccc(Cl)c4F)cc3)c3cnccc32)C1 [Example 59, (R)-1-(1-acryloylpiperidin-3-yl)-3-(4-(3-chloro-2-fluorophenoxy)phenyl)-1H-imidazo[4,5-c]pyridin-2(3H)-one] |
| 100 to 1000 | C=CC(=O)N1CC[C@@H](n2c(=O)n(-c3ccc(Oc4cccc(C5CC5)c4)cc3)c3cnccc32)C1 [Example 10, (R)-1-(1-acryloylpyrrolidin-3-yl)-3-(4-(3-cyclopropylphenoxy)phenyl)-1H-imidazo[4,5-c]pyridin-2(3H)-one] |
| 100 to 1000 | CC#CC(=O)N1CCC[C@@H](n2c(=O)n(-c3ccc(Oc4cccc(OC)c4F)cc3)c3cnccc32)C1 [Example 175, (R)-1-(1-(but-2-ynoyl)piperidin-3-yl)-3-(4-(2-fluoro-3-methoxyphenoxy)phenyl)-1H-imidazo[4,5-c]pyridin-2(3H)-one] |
| 10 to 100 | C=CC(=O)N1CC[C@@H](n2c(=O)n(-c3ccc(Oc4cccc(Cl)c4C)cc3)c3cnccc32)C1 [Example 139, (R)-1-(1-acryloylpyrrolidin-3-yl)-3-(4-(3-chloro-2-methylphenoxy)phenyl)-1H-imidazo[4,5-c]pyridin-2(3H)-one] |
| 100 to 1000 | C=CC(=O)N1CC[C@@H](n2c(=O)n(-c3ccc(OCc4cc(F)ccc4F)cc3)c3cnccc32)C1 [Example 209, (R)-1-(1-acryloylpyrrolidin-3-yl)-3-(4-((2,5-difluorobenzyl)oxy)phenyl)-1H-imidazo[4,5-c]pyridin-2(3H)-one] |
| 10 to 100 | C=CC(=O)Nc1cccc(-n2c(=O)n(-c3ccc(Oc4cccc(C)c4)c(Cl)c3)c3cnccc32)c1 [Example 144, N-(3-(3-(3-chloro-4-(m-tolyloxy)phenyl)-2-oxo-2,3-dihydro-1H-imidazo[4,5-c]pyridin-1-yl)phenyl)acrylamide] |
| 100 to 1000 | C=CC(=O)N1CC[C@H](n2c(=O)n(-c3ccc(Oc4ccccc4)cc3)c3/c(=N/O)[nH]cnc32)C1 [Example 177, (S,Z)-9-(1-acryloylpyrrolidin-3-yl)-6-(hydroxyimino)-7-(4-phenoxyphenyl)-7,9-dihydro-1H-purin-8(6H)-one] |
| 10 to 100 | C=CC(=O)Nc1cccc(-n2c(=O)n(-c3ccc(OCc4ccc(F)cc4)cc3)c3cnccc32)c1 [Example 247, N-(3-(3-(4-((4-fluorobenzyl)oxy)phenyl)-2-oxo-2,3-dihydro-1H-imidazo[4,5-c]pyridin-1-yl)phenyl)acrylamide] |
| 100 to 1000 | C=CC(=O)N1CC[C@@H](n2c(=O)n(-c3ccc(OCc4ccc(F)cc4F)c(Cl)c3)c3cnccc32)C1 [Example 202, (R)-1-(1-acryloylpyrrolidin-3-yl)-3-(3-chloro-4-((2,4-difluorobenzyl)oxy)phenyl)-1H-imidazo[4,5-c]pyridin-2(3H)-one] |
| 10 to 100 | C=CC(=O)Nc1cccc(-n2c(=O)n(-c3ccc(OCc4cc(F)c(F)cc4F)cc3)c3cnccc32)c1 [Example 195, N-(3-(2-oxo-3-(4-((2,4,5-trifluorobenzyl)oxy)phenyl)-2,3-dihydro-1H-imidazo[4,5-c]pyridin-1-yl)phenyl)acrylamide] |
| 100 to 1000 | C=CC(=O)Nc1cccc(-n2c(=O)n(-c3ccc(NC(=O)c4ccc(C(F)(F)F)cc4)cc3)c3cnccc32)c1 [Example 263, N-(4-(1-(3-acrylamidophenyl)-2-oxo-1,2-dihydro-3H-imidazo[4,5-c]pyridin-3-yl)phenyl)-4-(trifluoromethyl)benzamide] |
| ≤ 10 | C=CC(=O)N1CC[C@@H](n2c(=O)n(-c3ccc(Oc4cccc(OC)c4F)cc3)c3cnccc32)C1 [Example 191, (R)-1-(1-acryloylpyrrolidin-3-yl)-3-(4-(2-fluoro-3-methoxyphenoxy)phenyl)-1H-imidazo[4,5-c]pyridin-2(3H)-one] |
| 10 to 100 | C=CC(=O)N1CC[C@@H](n2c(=O)n(-c3ccc(Oc4cccc(OCC)c4)cc3)c3cnccc32)C1 [Example 24, (R)-1-(1-acryloylpyrrolidin-3-yl)-3-(4-(3-ethoxyphenoxy)phenyl)-1H-imidazo[4,5-c]pyridin-2(3H)-one] |
